Source: US5873359A, “Methods and devices for treating pulmonary vasoconstriction and asthma” (The General Hospital Corporation, priority 1994, dated 1999)

Legend:
[1] = system: experimentally-elevated PA pressure; assay: SNAP inhalation in sheep with experimentally-elevated PA pressure; assay type: in vivo; conditions: inhalation 1.3 mg/kg
Description: This method will provide a longer-lasting beneficial effect than briefly inhaling gaseous NO, as the deposited NO-releasing compound would slowly release NO over a relatively long period of time. Formulation and dosage of a selected NO-releasing compound can be determined without undue experimentation by one of ordinary skill in the art. As one example, a typical single inhaled dose of an NO-releasing compound such as S-nitroso-N-acetylpenicillamine (SNAP) or S-nitrosocysteine in dry powder form could range from 60 to 650 μg of the active compound (NO) per kg bodyweight, for approximately an hour of dilation.

[2] = cited from earlier work
[3] = system: methacholine bronchoconstriction; assay: SNAP aerosol during methacholine bronchoconstriction; assay type: in vivo, Hartley strain guinea pigs; conditions: nebulized, 20 breaths, 5 guinea pigs (FIG. 16)
Procedure: Male Hartley strain guinea pigs (300-440g body wt) were anesthetized with α-chloralose (50 mg/kg) and urethane (500 mg/kg) (Drazen et al., J. Appl. Physiol. 48:613-618, 1980). A tracheostomy was performed, and the animals were intubated with a tubing adaptor (ID 1.65 mm) and ventilated with a small animal ventilator (Harvard Apparatus, a division of Ealing Scientific, Natick, Mass.) at 8 ml/kg and 60 breaths/min. A jugular vein was cannulated for intravenous administration of drugs. The chest was opened by bilateral excision of a portion of the ribs anteriorly so that the lungs were exposed to atmospheric pressure (Shore and Drazen, J. Appl. Physiol. 67:2504-2511, 1989). A positive end expiratory pressure of 3-4 cmH2 O was provided.
Guinea pigs were then placed inside a plethysmograph (Amdur and Mead, Am. J. Physiol. 192:363-368, 1958), that was connected to a large reservoir containing copper mesh to maintain the plethysmograph isothermal. Plethysmograph pressure was measured with a differential pressure transducer (Celesco, Canoga Park, Calif.); the opposite side of this transducer was connected to a similar reservoir. Pressure at the airway opening was measured from a side tap in the tracheal canula. Transpulmonary pressure was measured with a differential pressure transducer (Celesco) as the difference between airway opening pressure and the pressure inside the plethysmograph. […]

Stability of SNAP = assay type: physicochemical; conditions: crystals at 0° C., up to 120 days, absorbance at 595 nm
Description: Alternatively, a mammal (in particular, a human) with or at risk of developing bronchoconstriction (e.g., asthma) or reversible pulmonary vasoconstriction may be treated with a therapeutically-effective amount of a nitric oxide-releasing compound. Known nitric oxide-releasing compounds (also referred to as nitric oxide-donor or nitric oxide-generating compounds) useful in the methods and devices of the invention can be divided into three categories: (a) nitroso or nitrosyl compounds (e.g., S-nitroso-N-acetylpenicillamine, S-nitroso-L-cysteine, and nitrosoguanidine) characterized by an --NO moiety that is spontaneously released or otherwise transferred from the compound under physiological conditions such as obtain in the lung; (b) compounds in which NO is a ligand on a transition metal complex, and as such is readily released or transferred from the compound under physiological conditions (e.g., nitroprusside, NO-ferredoxin, or an NO-heme complex); and (c) nitrogen-containing compounds which are metabolized by enzymes endogenous to the respiratory and/or vascular system to produce the NO radical (e.g., arginine, glyceryl trinitrate, isoamyl nitrite, inorganic nitrite, azide, and hydroxylamine). […]

SMILES: CC(=O)N[C@H](C(=O)O)C(C)(C)SN=O (racemic) [SNAP, S-nitroso-N-acetylpenicillamine]
- PA pressure [1]: prolonged reduction in PA pressure
- stability of solid form ([2]; solid form): stable in its solid form
- decomposition to release NO ([2]; under physiological conditions): readily decomposes to release NO
- duration of reduction of lung resistance [3]: about 15 minutes
- lung resistance [3]: prompt and profound reduction of lung resistance
- degradation on storage (Stability of SNAP): without detectable degradation
